Results on three compounds are retold here after patent US20100105663A1, “2-(HETEROARYL) ALKYL INDAZOLE 6-PHENYL AND THIENYL METHYL AMIDE AS THROMBIN INHIBITORS” (BAYER HEALTHCARE AG, priority 2006, published 2010).

This assay deals with human thrombin (Homo sapiens, UniProt P00734). Description: Measurement of thrombin inhibition (in vitro enzyme assay). It is filed as biochemical. Particulars: human thrombin 0.06 nmol/l, 15 min incubation at 22° C., pH 7.4; substrate 5 μmol/l Boc-Asp(OBzl)-Pro-Arg-AMC, 30 min, fluorescence. How it is done: For determination of the thrombin inhibition of the aforementioned substances, a biochemical test system is used, in which the conversion of a thrombin substrate is used for determining the enzymatic activity of human thrombin. In this, thrombin cleaves aminomethylcoumarin from the peptic substrate, and this is measured by fluorescence. The determinations are carried out in microtitre plates.
The test substances are dissolved at different concentrations in dimethylsulphoxide and incubated for 15 min with human thrombin (0.06 nmol/l dissolved in 50 mmol/l Tris-buffer [C,C,C-Tris(hydroxymethyl)-aminomethane], 100 mmol/l NaCl, 0.1% BSA [bovine serum albumin], pH 7.4) at 22° C. Then the substrate (5 μmol/l Boc-Asp(OBzl)-Pro-Arg-AMC from the company Bachem) is added. After incubation for 30 min the sample is excited at a wavelength of 360 nm and the emission at 460 nm is measured. The measured emissions of the test preparations with test substance are compared with the control preparations without test substance (dimethylsulphoxide only, instead of test substance in dimethylsulphoxide) and IC50 values are calculated from the concentration-effect relations.
Compound `O=C(NCc1cccc(Cl)c1)c1ccc2cn(CCN3CCOC3=O)nc2c1` [Example 4, N-(3-Chlorobenzyl)-2-[2-(2-oxo-1,3-oxazolidin-3-yl)ethyl]-2H-indazole-6-carboxamide] displayed an IC50 of 216 nM. `Cc1nn(CCn2cc3ccc(C(=O)NCc4cccc(Cl)c4)cc3n2)c(C)c1Cl` [Example 26, N-(3-Chlorobenzyl)-2-[2-(4-chloro-3,5-dimethyl-1H-pyrazol-1-yl)ethyl]-2H-indazole-6-carboxamide] came in with an IC50 of 110 nM.

`CN(C)C(Cn1cc2ccc(C(=O)NCc3cccc(Cl)c3)cc2n1)c1ccccc1Cl` (stereo not drawn) [Example 49, N-(3-Chlorobenzyl)-2-[2-(2-chlorophenyl)-2-(dimethylamino)ethyl]-2H-indazole-6-carboxamide] registered an IC50 of 26 nM.

The IC50 is the midpoint of a concentration-inhibition curve. Read a low IC50 as greater potency.
